Laboratory results as given in US20220064141A1, “BENZOPYRIDONE HETEROCYCLIC COMPOUND AND USE THEREOF” (BrightGene Bio-Medical Technology Co., Ltd., priority 2019, published 2022).

Tested on: NCI-H358 human non-small cell lung cancer cell with KRAS G12C mutation
Experiment: Cell Titer-Glo cell viability, NCI-H358 cells (72 h)
Type: cell-based
Excerpt: Effect Example 1: Pharmacodynamic Assay 1 (Determination of the efficacy of the compounds of the present disclosure on NCI-H358 human non-small cell lung cancer cell with KRAS G12C mutation)
The following method was used to determine the effect of the compounds of the present disclosure on tumor cell proliferation.
For the KRAS G12C subtype, NCI-H358 non-small cell lung cancer cells with KRAS G12C mutation were used to determine the efficacy of the compounds in inhibiting cancer cell viability. NCI-H358 cells were cultured in a DMEM medium containing 10% fetal bovine serum, 100 U penicillin and […] streptomycin. The cells were cultured in an incubator with 5% CO2 at 37° C. Cancer cell viability was evaluated by determining the content of ATP with Cell Titer-Glo® kit (Luminescent Cell Viability Assay kit, please refer to the manufacturer's instructions for use) and evaluating the inhibition of cell growth.
The experimental method was proceeded in accordance with the steps in the instructions for the kit, and was described briefly as follows. The test compounds were first dissolved in DMSO to prepare stock solutions, and then the stock solutions were subjected to gradient dilution with the culture media of the corresponding cells, thereby preparing test samples. The final concentrations of the compounds were in the range of 30 μM to 0.01 nM. Tumor cells in logarithmic growth phase were seeded into a 96-well cell culture plate at an appropriate density. After the cell culture plate was left overnight in an incubator with 5% CO2 at 37° C., the test compound samples were added thereto and then the cells were further cultured for 72 hours. After the incubation was complete, an appropriate volume of Cell Titer-Glo® reagent was added into each well, and the cells were incubated at 37° C. for 1 to 4 hours. Then, the […] was read on a microplate reader.

[1] = Homo sapiens, NCI-H358, 72 h, class symbols

Row | Structure (SMILES) | IC50 [1] | other results
1 | C=CC(=O)N1CCN(c2c(C#N)c(=O)n(-c3ccccc3C(C)C)c3cc(-c4cnc(F)cc4C)c(Cl)cc23)[C@@H](C)C1 [Compound I-32] | 100 to 1000 nM | 
2 | C=CC(=O)N1CCN(c2c(C#N)c(=O)n(-c3ccccc3C(C)C)c3cc(-c4ccc(Cl)cc4F)c(Cl)cc23)[C@@H](C)C1 [Compound I-42] | 100 to 1000 nM | 
3 | C=CC(=O)N1CCN(c2c(C#N)c(=O)n(-c3ccccc3C(C)C)c3cc(-c4cccc(F)c4)c(Cl)cc23)[C@@H](C)C1 [Compound I-14] | 100 to 1000 nM | 
4 | C=CC(=O)N1CCN(c2c(C#N)c(=O)n(-c3ccccc3C(C)C)c3cc(-c4cccc(Cl)c4)c(Cl)cc23)[C@@H](C)C1 [Compound I-17] | > 1000 nM | 
5 | C=CC(=O)N1CCN(c2c(C#N)c(=O)n(-c3c(C)ccnc3C(C)C)c3cc(-c4c(OC)ccc(Cl)c4F)c(Cl)cc23)[C@@H](C)C1 [Compound I-84-2] |  | IC50 (class symbols): 100 to 1000 nM
6 | C=CC(=O)N1CCN(c2c(C#N)c(=O)n(-c3ccccc3C(C)C)c3cc(-c4ccc5[nH]ncc5c4)c(Cl)cc23)[C@@H](C)C1 [Compound I-74] | > 1000 nM | 
7 | C=CC(=O)N1CCN(c2c(C#N)c(=O)n(-c3ccccc3C(C)C)c3cc(-c4ccccc4C(N)=O)c(Cl)cc23)[C@@H](C)C1 [Compound I-12] | 100 to 1000 nM | 
8 | C=CC(=O)N1CCN(c2c(C#N)c(=O)n(-c3ccccc3C(C)C)c3cc(-c4ccccc4C4CC4)c(Cl)cc23)[C@@H](C)C1 [Compound I-75] | 100 to 1000 nM | 
9 | C=CC(=O)N1CCN(c2c(C#N)c(=O)n(-c3ccccc3C(C)C)c3cc(-c4ccccc4CO)c(Cl)cc23)[C@@H](C)C1 [Compound I-65] | 100 to 1000 nM | 
10 | C=CC(=O)N1CCN(c2c(C#N)c(=O)n(-c3ccccc3C(C)C)c3cc(-c4ccc(F)cc4O)c(Cl)cc23)[C@@H](C)C1 [Compound I-61] | < 100 nM | 
11 | C=CC(=O)N1CCN(c2c(C#N)c(=O)n(-c3ccccc3C(C)C)c3cc(-c4cc(F)ccc4N)c(Cl)cc23)[C@@H](C)C1 [Compound I-69] | < 100 nM | 
12 | C=CC(=O)N1CCN(c2c(C#N)c(=O)n(-c3ccccc3C(C)C)c3cc(-c4c(N)ccc(Cl)c4F)c(Cl)cc23)[C@@H](C)C1 [Compound I-35] | < 100 nM | 
13 | C=CC(=O)N1CCN(c2c(C#N)c(=O)n(-c3ccccc3C(C)C)c3cc(-c4cccc5ccoc45)c(Cl)cc23)[C@@H](C)C1 [Compound I-55] | 100 to 1000 nM | 
14 | C=CC(=O)N1CCN(c2c(C#N)c(=O)n(-c3ccccc3C(C)C)c3cc(-c4cccc(Cl)c4F)c(Cl)cc23)[C@@H](C)C1 [Compound I-36] | 100 to 1000 nM | 
15 | C=CC(=O)N1CCN(c2c(C#N)c(=O)n(-c3ccccc3C(C)C)c3cc(-c4ccc(N)nc4)c(Cl)cc23)[C@@H](C)C1 [Compound I-64] | 100 to 1000 nM | 
16 | C=CC(=O)N1CCN(c2c(C#N)c(=O)n(-c3c(C(C)C)ncnc3C(C)C)c3cc(-c4c(OC)ccc(Cl)c4F)c(Cl)cc23)[C@@H](C)C1 [Compound I-87-1] | < 100 nM | 
17 | C=CC(=O)N1CCN(c2c(C#N)c(=O)n(-c3ccccc3C(C)C)c3cc(-c4ccc(C#N)cc4N)c(Cl)cc23)[C@@H](C)C1 [Compound I-60] | 100 to 1000 nM | 
18 | C=CC(=O)N1CCN(c2c(C#N)c(=O)n(-c3ccccc3C(C)C)c3cc(-c4ccc(F)cc4O)c(Cl)cc23)[C@@H](C)C1 [Compound I-72] |  | IC50 (class symbols): < 100 nM
19 | C=CC(=O)N1CCN(c2c(C#N)c(=O)n(-c3c(C(C)C)ncnc3C(C)C)c3cc(-c4c(C)ccc5[nH]ncc45)c(Cl)cc23)[C@@H](C)C1 [Compound I-86-1] | < 100 nM | 
20 | C=CC(=O)N1CC2(CCN(c3c(C#N)c(=O)n(-c4ccccc4C(C)C)c4cc(-c5c(C)ccc6[nH]ncc56)c(Cl)cc34)CC2)C1 (single isomer, unassigned) [Compound I-5-1] |  | IC50 (class symbols): > 1000 nM
21 | C=CC(=O)N1CCN(c2c(C#N)c(=O)n(-c3ccccc3C(C)C)c3cc(-c4ccc(Cl)cc4Cl)c(Cl)cc23)[C@@H](C)C1 [Compound I-38] | 100 to 1000 nM | 
22 | C=CC(=O)N1CCN(c2c(C#N)c(=O)n(-c3ccccc3C(C)C)c3cc(-c4ccc(N)nc4C)c(Cl)cc23)[C@@H](C)C1 [Compound I-56] | 100 to 1000 nM | 
23 | C=CC(=O)N1CCN(c2c(C#N)c(=O)n(-c3ccccc3C(C)C)c3cc(-c4cnn(CCO)c4)c(Cl)cc23)[C@@H](C)C1 [Compound I-58] | 100 to 1000 nM | 

Row | Structure (SMILES) | IC50 [1] | other results
24 | C=CC(=O)N1CCN(c2c(C#N)c(=O)n(-c3ccccc3C(C)C)c3cc(-c4cc(C#N)ccc4C)c(Cl)cc23)[C@@H](C)C1 [Compound I-49] | 100 to 1000 nM | 
25 | C=CC(=O)N1CCN(c2c(C#N)c(=O)n(-c3ccccc3C(C)C)c3cc(-c4ccc(Cl)c5ccccc45)c(Cl)cc23)[C@@H](C)C1 [Compound I-24] | < 100 nM | 
26 | C=CC(=O)N1CCN(c2c(C#N)c(=O)n(-c3ccccc3C(C)C)c3cc(-c4cc(Cl)ccc4N)c(Cl)cc23)[C@@H](C)C1 [Compound I-82] |  | IC50 (class symbols): < 100 nM
27 | C=CC(=O)N1CCN(c2c(C#N)c(=O)n(-c3ccccc3C(C)C)c3cc(-c4cc(Cl)ccc4N)c(Cl)cc23)[C@@H](C)C1 [Compound I-43] | < 100 nM | 
28 | C=CC(=O)N1CCN(c2c(C#N)c(=O)n(-c3ccccc3C(C)C)c3cc(-c4ccccc4C#N)c(Cl)cc23)[C@@H](C)C1 [Compound I-19] | > 1000 nM | 
29 | C=CC(=O)N1CCN(c2c(C#N)c(=O)n(-c3ccccc3C(C)C)c3cc(-c4ccccc4F)c(Cl)cc23)[C@@H](C)C1 [Compound I-10] | > 1000 nM | 
30 | C=CC(=O)N1CCN(c2c(C#N)c(=O)n(-c3ccccc3C(C)C)c3cc(-c4cc(C)c(C)cc4C)c(Cl)cc23)[C@@H](C)C1 [Compound I-28] | > 1000 nM | 
31 | C=CC(=O)N1CCN(c2c(C#N)c(=O)n(-c3ccccc3C(C)C)c3cc(-c4coc5ccccc45)c(Cl)cc23)[C@@H](C)C1 [Compound I-51] | 100 to 1000 nM | 
32 | C=CC(=O)N1CCN(c2c(C#N)c(=O)n(-c3ccccc3C(C)C)c3cc(-c4cc(C)c(=O)n(C)c4)c(Cl)cc23)[C@@H](C)C1 [Compound I-16] | 100 to 1000 nM | 
33 | C=CC(=O)N1CC2(CCN(c3c(C#N)c(=O)n(-c4ccccc4C(C)C)c4cc(-c5c(C)ccc6[nH]ncc56)c(Cl)cc34)CC2)C1 (single isomer, unassigned) [Compound I-5-2] |  | IC50 (class symbols): 100 to 1000 nM
34 | C=CC(=O)N1CCN(c2c(C#N)c(=O)n(-c3ccccc3C(C)C)c3cc(-c4cc(C(F)(F)F)cc(Cl)c4N)c(Cl)cc23)[C@@H](C)C1 [Compound I-79] | < 100 nM | 
35 | C=CC(=O)N1CCN(c2c(C#N)c(=O)n(-c3ccccc3C(C)C)c3cc(-c4cc(C)cc(C)c4N)c(Cl)cc23)[C@@H](C)C1 [Compound I-81] | 100 to 1000 nM | 
36 | C=CC(=O)N1CCN(c2c(C#N)c(=O)n(-c3ccccc3C(C)C)c3cc(-c4cn[nH]c4)c(Cl)cc23)[C@@H](C)C1 [Compound I-54] | 100 to 1000 nM | 
37 | C=CC(=O)N1CCN(c2c(C#N)c(=O)n(-c3ccccc3C(C)C)c3cc(-c4cc(N)ccc4F)c(Cl)cc23)[C@@H](C)C1 [Compound I-13] | 100 to 1000 nM | 
38 | C=CC(=O)N1CCN(c2c(C#N)c(=O)n(-c3ccccc3C(C)C)c3cc(-c4ccc(C#N)cc4C)c(Cl)cc23)[C@@H](C)C1 [Compound I-50] | 100 to 1000 nM | 
39 | C=CC(=O)N1CCN(c2c(C#N)c(=O)n(-c3c(C)ccnc3C(C)C)c3cc(-c4c(C)ccc5[nH]ncc45)c(Cl)cc23)[C@@H](C)C1 [Compound I-83-2] |  | IC50 (class symbols): 100 to 1000 nM
40 | C=CC(=O)N1CCN(c2c(C#N)c(=O)n(-c3ccccc3C(C)C)c3cc(-c4ccccc4Cl)c(Cl)cc23)[C@@H](C)C1 [Compound I-18] | 100 to 1000 nM | 
41 | C=CC(=O)N1C[C@H](C)N(c2c(C#N)c(=O)n(-c3ccccc3C(C)C)c3cc(-c4c(C)ccc5[nH]ncc45)c(Cl)cc23)C[C@H]1C (single isomer, unassigned) [Compound I-4-2] |  | IC50 (class symbols): 100 to 1000 nM
42 | C=CC(=O)N1CCN(c2c(C#N)c(=O)n(-c3ccccc3C(C)C)c3cc(-c4ccc5c(c4)CC5)c(Cl)cc23)[C@@H](C)C1 [Compound I-47] | 100 to 1000 nM | 
43 | C=CC(=O)N1CCN(c2c(C#N)c(=O)n(-c3ccccc3C(C)C)c3cc(-c4c(C)ccc5[nH]ncc45)c(Cl)cc23)[C@H](C)C1 (single isomer, unassigned) [Compound I-3-2] |  | IC50 (numeric values): 250 nM
44 | C=CC(=O)N1CCN(c2c(C#N)c(=O)n(-c3ccccc3C(C)C)c3cc(-c4ccc(F)cc4)c(Cl)cc23)[C@@H](C)C1 [Compound I-15] | 100 to 1000 nM | 
45 | C=CC(=O)N1CCN(c2c(C#N)c(=O)n(-c3ccccc3C(C)C)c3cc(-c4cnc(C5CC5)nc4)c(Cl)cc23)[C@@H](C)C1 [Compound I-27] | 100 to 1000 nM | 
